The values that follow come from patent publication EP2933270B1, “ARTEANNUIN CYCLODEXTRIN CONJUGATE AND PREPARING METHOD THEREOF” (KPC Pharmaceuticals, Inc., priority 2012, dated 2014).

One data set can be described thus: Solubility in water. The text has this:
The arteannuin-cyclodextrin conjugate according to the present invention uses a cyclodextrin as a carrier, and a molecule of an arteannuin compound is connected, via an amide bond formed between the carboxyl group thereof and any amine group of the cyclodextrin modified by an amine group, to the cyclodextrin.

Another data set has as its system hepatocarcinoma H22. The note with it: mice, 300 mg/kg by gavage; cited from earlier work.
The test system of a further data set is Hep2 hepatoma. The conditions noted are these: mice, intraperitoneal injection, 60 mg/kg; cited from earlier work.
In a further data set the test system is SW480. The data set is described as follows: MTT assay, growth inhibition of human rectal cancer cells. The conditions noted are these: 48 h. The format is cell-based. As for the experimental part:
(§1) For example, 180 µl suspension of human rectal cancer cells HCT116, Lovo, SW480 and HT29 at a concentration of 4×10^4/mL is added to 96-well culture plate, and pre-cultured under the conditions of 5% CO2, 37°C and saturated moisture for 24h. After 150 µl medium is replaced, 20 µl medium containing molecular assembly at different concentrations is added, and cultured for another 48 h, with the medium free of a sample as a negative control, and a medium containing camptothecin, oxaliplatin and fluorouracil at different concentrations as a positive control. MTT assay is used to determine the OD value, and to calculate the growth inhibition rate. The inhibition of compounds at high, medium and low concentrations on the tumor cell proliferation is observed. All the experiments above are performed in triplet. Results for in vitro experiment of the arteannuin-cyclodextrin conjugate with respect to human rectum and caecum cancer cells are shown in table 1. Table 1 IC50 value (µM) for certain arteannuin compounds in several rectum cancer cells

In the next data set the test system is HT29. Described as above. In kind it is cell-based. The note with it: 48 h. On the procedure:
as §1

The subject of the next data set is HCT116. The data set is described as above. The format is cell-based. As for the experimental part:
as §1

The subject of the next data set is Lovo. Described as above. In kind it is cell-based. The conditions noted are these: 48 h. As for the experimental part: as §1
The mark [1] stands for this setting: Homo sapiens, HT-29, HT 90 [sic] cells (method: HT29).
Setting [2] is: HT 90 [sic] cells (method: HT29).
[3] abbreviates: isolated product of the example.

Where two headings read alike, the source gives them in different places.

For `C[C@@H]1CC[C@H]2[C@@H](C)C(=O)O[C@@H]3O[C@@]4(C)CC[C@@H]1[C@]32OO4` [arteannuin], the “solubility in water” value in the data set “Solubility in water” (in water) is reported as “almost insoluble in water”.

For `C[C@H]1[C@H](OC(=O)CCC(=O)O)O[C@@H]2O[C@@]3(C)CC[C@H]4[C@H](C)CC[C@@H]1[C@@]24OO3` [artesunate], the anti-tumor rate with hepatocarcinoma H22 is on record as no less than 40%; in the data set with Hep2 hepatoma it was 80.4%. Further, in the data set “Solubility in water” (in water), the “solubility in water” value is “almost insoluble in water”. The concentration for half-maximal inhibition (IC50) in the data set on SW480 (Homo sapiens) was determined as 1.82 µM; with HT29 (setting [1]), 9.11 µM; in the data set on HCT116 (Homo sapiens, HCT-116, 48 h), 1.04 µM; with Lovo (Homo sapiens) it was 2.6 µM.

As to `C[C@H]1[C@@H](O)O[C@@H]2O[C@@]3(C)CC[C@H]4[C@H](C)CC[C@@H]1[C@@]24OO3` [dihydroarteannuin], the “solubility in water” value in the data set “Solubility in water” was “almost insoluble in water”. For the same compound, the IC50 in the data set on SW480 (Homo sapiens) is 14.1 µM; with HT29 (setting [1]) it was 21.1 µM; in the data set with HCT116 (Homo sapiens, HCT-116, 48 h) it was 1.76 µM; with Lovo (Homo sapiens) it was 2.11 µM.

Consider `O=c1[nH]cc(F)c(=O)[nH]1` [fluorouracil], for which the IC50 in the data set on SW480 (Homo sapiens) came out at 30.8 µM; in the data set on HT29 (setting [1]) it was 38.5 µM; in the data set with HCT116 (Homo sapiens, HCT-116, 48 h) it was 5.4 µM; with Lovo (Homo sapiens), 23 µM.

As for `O=C1[O][Pt]2([NH][C@@H]3CCCC[C@H]3[NH]2)[O]C1=O` [oxaliplatin], the concentration for half-maximal inhibition (IC50) was 30.1 µM in the data set with SW480, 9.7 µM with HT29 (setting [2]), 0.76 µM in the data set with HCT116 (48 h) and 1.51 µM in the data set with Lovo.

“conjugate of mono-[6-(ethanediamine)-6-deoxy]-β-cyclodextrin and the compound in which C-12 of the arteannuin was connected with a phenoxy group [Example 5]” had a solubility in the data set “Solubility in water” of 68 mg/mL.

In “Solubility in water” (setting [3]), “conjugate of mono-[6-(monoamine)-6-deoxy]-β-cyclodextrin and the compound in which C-12 of the arteannuin was connected with a phenoxy group [Example 6]” gave a solubility of 54 mg/mL.

The compound “mono-[6-(ethanediamine)-6-deoxy]-β-cyclodextrin-artesunate conjugate [Example 1]” registered a solubility in the data set “Solubility in water” (setting [3]) of 68 mg/mL. Moreover, the IC50 in the data set with SW480 worked out at 3.89 µM; in the data set with HT29 (setting [2]), 5.18 µM; in the data set with HCT116 (48 h), 0.58 µM; in the data set on Lovo, 1.62 µM.
